“Also recorded” adds a separate entry of the source.
How the values were obtained:
[1] = Dye penetration into the anterior chamber with or without corneal impalement; type: in vivo, mouse; conditions: 0.003% droplet, 5 min, impaled eyes
Procedure: Whether drug penetration into the eye was influenced by corneal impalement by a micropipette was further tested by topically applying a […] containing 0.003% carboxyfluorescein ([…]) to both eyes of two mice. Carboxyfluorescein is a highly polar molecule that crosses the barrier layers of the eye poorly. In each mouse, an exploring micropipette was first advanced into the aqueous humor of one eye while the companion eye was not impaled. After 5 min, the dye was washed out with isotonic saline.

[2] = system: mouse IOP; experiment: Mouse IOP after topical application, non-invasive pneumotonometry; type: in vivo, Black Swiss mice; conditions: for Δ(IOP) Pneumotonometer: 30 min
Procedure: (§1) The test animals were black Swiss outbred mice of mixed sex, 7-9 weeks old and 25-30 g in weight, obtained from Taconic Inc. (Germantown, N.Y.), and maintained under 12:12-h light/dark illumination cycle and allowed unrestricted access to food and water. Mice were anesthetized with intraperitoneal ketamine ([…]) supplemented by topical proparacaine HCl 0.5% (Allergan, Bausch & Lomb) for the IOP measurements. IOP was measured invasively (SNMS) and non-invasively by pneumotonometry in separate animals.
By comparison, IOP was measured non-invasively by pneumotonometry (OBT) (Avila et al., supra, 2005). As previously described, the commercially available tip of the ocular blood tomography (OBT) pneumotonometer (Blood Flow Analyzer [BFA] probe tip; Paradigm Medical Industries Inc.) was fit to a custom-built mount. Air flow from a constant pressure source was passed through the mount to reach a diaphragm forming the end of the BFA tip. The flow of air displaces the diaphragm outward, permitting escape of the air through holes in the wall of the probe tip into the atmosphere. Pressure was monitored with a transducer connected through a T-connection to the base of the BFA tip. The probe assembly was advanced to the cornea with a three-axis micromanipulator. The probe tip was advanced sufficiently to make contact with the tear film, as was indicated by a shift in the baseline output reading. In a refined method, the tip was withdrawn until the […] was visually displaced from the tear film. The output was then adjusted to zero before advancing the tip again. Contact with the cornea depresses the diaphragm of the BFA tip, occluding access of the air flow to the escape holes and raising the pressure at the base of the tip.
This approach was simplified to expedite identification of the endpoint, and the probe was subsequently advanced in about 10 standardized steps of approximately […] at intervals of about 10 seconds to identify the inflection region (Wang et al., supra, 2006). […] The pneumotonometric estimates of IOP were previously found to agree with manometric measurements in cannulated preparations and with estimates obtained by the servo-null technique (Avila et al., supra, 2005). Having established the baseline value of IOP, the position along the axis of advance of the micromanipulator was noted, and the probe was retracted from contact with the cornea. Subsequent measurements of IOP at later time points were obtained by advancing the probe tip to the same position, with the placement of the mouse maintained stereotactically. The measurements were conducted at 10-min intervals to avoid potential artifacts associated with prolonged pressure on the cornea.
(§2) Ketamine HCl was purchased from Phoenix Pharmaceutical Inc. (St. Joseph, Mo.). Other drugs were obtained from Sigma Chemical (St. Louis, Mo.). Drugs were applied topically with an Eppendorf pipette. […] The final droplet solution contained the drugs at the stated concentrations together with <2% DMSO and 0.0005% benzalkonium chloride at an osmolality of 295-300 mOsm. DMSO was omitted, altogether, from droplets containing the hydrophilic compounds adenosine, carbachol and carboxyfluorescein.
(§3) Effects on invasively-measured IOP were measured 10 min after topical application because after this time, the continued presence of the micropipette can be associated with a downward drift of the IOP, even under control conditions. In contrast, smaller droplets ([…]) were applied to the eye more frequently (three times instead of once) with the non-invasive technique, in order to forestall drying of the eye associated with the airflow from the pneumotonometer. With the non-invasive protocol, the IOP was stable for 30 min under control conditions.
In Table 1, an endpoint of 10 minutes was used for the invasive measurements in light of the above-discussed downward drift of the IOP, even under control conditions. […]

[3] = biological target: T1, human A2B adenosine receptor (Homo sapiens, UniProt P29275); experiment: Potency at human A2B adenosine receptor; type: binding; conditions: at 10 μM
T1 construct: expressed in transfected cells; host or cells: CHO cells (stably transfected)
T1 sequence (P29275 1-332): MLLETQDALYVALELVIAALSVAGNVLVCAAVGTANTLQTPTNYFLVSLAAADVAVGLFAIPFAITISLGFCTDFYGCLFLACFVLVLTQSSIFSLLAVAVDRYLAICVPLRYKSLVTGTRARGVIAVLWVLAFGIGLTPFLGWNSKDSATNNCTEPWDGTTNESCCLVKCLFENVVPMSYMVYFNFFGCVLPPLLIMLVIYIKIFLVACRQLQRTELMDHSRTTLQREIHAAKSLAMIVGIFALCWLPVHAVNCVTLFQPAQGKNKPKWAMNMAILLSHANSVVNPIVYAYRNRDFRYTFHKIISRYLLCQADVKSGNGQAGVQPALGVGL

[4] = biological target: T2, rat A3 receptors (Rattus norvegicus, UniProt P28647); experiment: Radioligand binding, [125I]AB-MECA, CHO cells; conditions: means±SEM, N=3-4
T2 construct: expressed in transfected cells; host or cells: CHO cells (stably transfected)
T2 sequence (P28647 1-320): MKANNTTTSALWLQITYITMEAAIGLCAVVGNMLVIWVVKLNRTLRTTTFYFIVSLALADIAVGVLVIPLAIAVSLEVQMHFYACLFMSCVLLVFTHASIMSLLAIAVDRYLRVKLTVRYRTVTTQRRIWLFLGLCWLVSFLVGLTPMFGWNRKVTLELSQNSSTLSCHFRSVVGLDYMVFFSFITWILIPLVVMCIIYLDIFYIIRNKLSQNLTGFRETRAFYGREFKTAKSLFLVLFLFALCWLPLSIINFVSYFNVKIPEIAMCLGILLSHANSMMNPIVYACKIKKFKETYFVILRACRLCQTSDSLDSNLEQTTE

[5] = system: mouse IOP; experiment: Mouse IOP after topical application, invasive servo-null micropipette system (SNMS); type: in vivo, Black Swiss mice; conditions: for Δ(IOP) Servo-Null: endpoint 10 min
Procedure: as §1
By the SNMS approach (Avila et al., supra, 2001), the exploring micropipette, of […] outer diameter, was filled with a highly conducting solution and advanced across the cornea into the anterior chamber. A refined technique by Wang et al., Invest. Opthalmol. Vis. Sci. (serial online) (Aug. 31, 2006) available at www.iovs.org/egi/letters/46/9/3274#422, enhanced stability and reduce the background noise of the records, permitting fabrication of micropipettes whose resistance is 0.1-0.3 MΩ, rather than the 0.25-0.4 MΩ used initially. The filling solution was reduced from 3M KCl to 2M NaCl, rather than 3 M KCl. The resistance of the filled micropipette was balanced in a bridge circuit, and the tip was then advanced across the cornea. Upon entering the anterior chamber of the eye, the IOP forces the much lower-conducting aqueous humor into the micropipette tip, displacing the original filling solution. The micropipette resistance was thereby increased, unbalancing the bridge circuit and triggering a bellows to provide a counter-pressure, restoring the position of the filling solution and returning the resistance to its initial value. Thus, the value of the counter-pressure equals the IOP. As in the past (Avila et al., supra, 2001), the stability of the records permitted continuous measurements for tens of minutes during the course of drug applications.
as §2, §3
In Table 1, an endpoint of 10 minutes was used for the invasive measurements in light of the above-discussed downward drift of the IOP, even under control conditions. Also the need for smaller, more frequent droplets are discussed above with regard to the non-invasive technique using the pneumotonometer. As above, with the non-invasive protocol, the IOP was stable for 30 minutes under control conditions.

[6] = system: HCE (human ciliary epithelial) cell line, NPE cells; conditions: Civan et al.; read-out: EC50 of isosmotic shrinkage of cultured human NPE cells; cited from earlier work
[7] = system: cultured human NPE cells; conditions: cited from earlier work
[8] = biological target: T3, human A1 receptors (Homo sapiens, UniProt P30542); conditions: literature; read-out: Ki for the binding to human A1 receptors; cited from earlier work
T3 sequence (P30542 1-326): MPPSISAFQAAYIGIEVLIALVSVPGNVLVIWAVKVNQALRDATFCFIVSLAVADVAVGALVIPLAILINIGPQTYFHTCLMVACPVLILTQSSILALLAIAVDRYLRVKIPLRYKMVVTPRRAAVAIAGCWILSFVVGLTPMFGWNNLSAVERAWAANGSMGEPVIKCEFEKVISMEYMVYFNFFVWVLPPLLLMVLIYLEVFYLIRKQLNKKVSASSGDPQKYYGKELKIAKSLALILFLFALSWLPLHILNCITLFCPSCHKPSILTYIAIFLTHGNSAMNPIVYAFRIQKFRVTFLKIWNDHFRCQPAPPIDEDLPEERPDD

[9] = biological target: human A2A receptors (Homo sapiens, UniProt P29274); conditions: literature; read-out: Ki for the binding to human A2A receptors; cited from earlier work
[10] = biological target: T4, human A3 receptors (Homo sapiens, UniProt P0DMS8); conditions: literature; read-out: Ki for the binding to human A3 receptors; cited from earlier work
T4 sequence (P0DMS8 1-318): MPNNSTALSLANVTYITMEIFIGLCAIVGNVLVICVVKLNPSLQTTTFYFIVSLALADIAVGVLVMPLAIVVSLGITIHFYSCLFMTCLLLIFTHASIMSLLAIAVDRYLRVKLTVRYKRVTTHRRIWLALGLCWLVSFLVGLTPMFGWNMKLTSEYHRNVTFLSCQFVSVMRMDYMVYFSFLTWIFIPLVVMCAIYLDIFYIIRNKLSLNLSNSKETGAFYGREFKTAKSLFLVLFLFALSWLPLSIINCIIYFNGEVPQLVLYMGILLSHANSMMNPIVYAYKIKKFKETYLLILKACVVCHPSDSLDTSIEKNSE

[11] = system: HCE (human ciliary epithelial) cell line, NPE cells; experiment: Cell volume in isosmotic solution (isosmotic shrinkage), Coulter Counter; type: cell-based; conditions: 10 μM adenosine; 2 min preincubation with 300 nM MRS-1097, 100 nM MRS-1191 or 100 nM MRS-1523
Procedure: Cell Culture The HCE (human ciliary epithelial) cell line (Carre et al., supra, 1997) is an immortalized NPE cell line obtained from primary cultures of adult human epithelium. […] Eye Res. 57:3057-3063 (1993); Yantorno et al., Exp. Eye Res. 49:423-437 (1989)). […] Cells were passaged every 6-7 days and were studied 8-13 days after passage, after reaching confluence. An immortalized PE-cell line from a primary culture of bovine pigmented ciliary epithelium were also grown under matching conditions. Measurement of Cell Volume in Isosmotic Solution: The volume of PE and NPE cells was measured, since the movement of fluid underlies a change in PE and NPE cell volume, respectively. This is also thought to be the same as the movement of fluid which underlines the secretion of aqueous humor (FIG. 1). […] Parallel aliquots of cells were studied on the same day. One aliquot usually served as a control, and the others were exposed to different experimental conditions at the time of suspension. The same amount of solvent vehicle (dimethylformamide, DMSO or ethanol) was always added to the control and experimental aliquots. […] Cell volumes of isosmotic suspensions were measured with a Coulter Counter (model ZBI-Channelyzer II), using a 100 μm aperture (Civan et al., supra, 1994). As previously described (Wax et al., supra, 1993), the cell volume (vC) of the suspension was taken as the peak of the distribution function. Cell shrinkage was fit as a function of time (t) to a monoexpenential function: […]^0^)/τ] {1) where v∞ is the steady-state cell volume, v0 is the cell volume at the first point (t0) of the time course to be fit, and τ is the time constant of the shrinkage. For purposes of data reduction, the data were normalized to the first time point, taken to be 100% isotonic volume. Fits were obtained by nonlinear least-squares regression analysis, permitting both v∞ and τ to be variables. […] Med. Chem. 37:636-646 (1994; Jacobson et al., supra, 1995; Jacobson et al., FEBS Lett. 336:57-60 (1993)).

Sequence of human A2A receptors (P29274 whole entry): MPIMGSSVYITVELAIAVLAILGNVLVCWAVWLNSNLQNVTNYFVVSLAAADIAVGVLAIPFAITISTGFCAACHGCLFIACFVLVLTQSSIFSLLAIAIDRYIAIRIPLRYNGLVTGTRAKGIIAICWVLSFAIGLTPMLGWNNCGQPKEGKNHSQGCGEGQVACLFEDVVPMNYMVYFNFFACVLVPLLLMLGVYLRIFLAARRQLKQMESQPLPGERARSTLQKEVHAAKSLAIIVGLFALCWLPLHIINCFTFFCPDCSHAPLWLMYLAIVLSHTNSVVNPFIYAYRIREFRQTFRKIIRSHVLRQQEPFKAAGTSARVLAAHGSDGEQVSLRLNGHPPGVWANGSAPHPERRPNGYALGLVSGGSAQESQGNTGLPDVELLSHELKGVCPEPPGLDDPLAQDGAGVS

Which “fluorescence in the anterior chamber” value [1] does the source give for carboxyfluorescein here?
Its value is “Green fluorescence was observed in the anterior chamber of the impaled mouse eyes”.

What does the source list for `OC1CSC(n2cnc3c(NCc4cccc(I)c4)nc(Cl)nc32)C1O` (centres unmarked) [MRS-3820, 2-(2-chloro-6-(3-iodobenzylamino)-9H-purin-9-yl)tetrahydrothiophene-3,4-diol]?
time to significant reduction of non-invasively measured IOP ([2]; 250 μM droplet): ≤ 20 min; reduction in IOP 30 minutes post-administration ([2]; 250 μM droplet, normal mice, non-invasive, baseline 16.7±1.1): 4.2±0.7 mmHg; reduction in IOP 20 min following application ([2]; 250 μM, non-invasive): 3.4±0.7 mm Hg; Δ(IOP) Pneumotonometer ([2]; topical droplets 25 μM (0.2% DMSO)): −0.6 ± 1.5 mm Hg; potency at A2B [3]: < 10%; Ki [4]: 3.9 ± 1.2 nM; Δ(IOP) Servo-Null ([5]; topical droplet 5 μM (0.2% DMSO)): −2.2 ± 0.7 mm Hg; Δ(IOP) Servo-Null ([5]; topical droplet 25 μM (0.2% DMSO)): −4.9 ± 1.7 mm Hg; Δ(IOP) Servo-Null ([5]; topical droplet 75 μM (0.6% DMSO)): −3.1 ± 1.4 mm Hg; Δ(IOP) Servo-Null ([5]; topical droplet 250 μM (2% DMSO)): −1.5 ± 0.6 mm Hg

Which results are given for `Nc1ncnc2c1ncn2[C@@H]1O[C@H](CO)[C@@H](O)[C@H]1O` [Adenosine, adenosine]?
delay of the increase in IOP when measured non-invasively ([2]; topical): about 10 minutes; Δ(IOP) Pneumotonometer ([2]; topical droplets 10 mM): +4.8 ± 1.7 mm Hg; EC50 [6]: 3000 to 10000 nM; increase in IOP over baseline ([5]; SNMS, after 10 min, adenosine 10 mM, Cl-IB-MECA 200 nM droplet): 24.0±4.7 mmHg; Δ(IOP) Servo-Null ([5]; topical droplet 10 mM): +22.4 ± 6.5 mm Hg; time constant (τ) of the adenosine-triggered shrinkage ([7]; 10 μM adenosine without antagonist): 3.8 ± 0.6 min; degree of shrinkage relative to control ([7]; 10 μM): increased the degree of shrinkage several-fold

Which results are given for `CCCOC(=O)c1c(-c2ccccc2)nc(CC)c(C(=O)SCC)c1CCC` [MRS-1523]?
Ki [8]: 15600 nM; Ki [9]: 2050 nM; Ki [10]: 19 nM; effect of A3 antagonist on adenosine-stimulated isotonic shrinkage of NPE cells [11]: prevented the characteristic shrinkage; also recorded: blocked the shrinkage; also recorded: eliminated the actions of adenosine; effect on IOP in the mouse (in words) ([5]; tested by the inventors, technique not given): found to lower IOP in the mouse
